Experimental data published in publication PMC12473425, “Development and Evaluation of a Modified Fixed-Dose Combination Antihypertensive Tablet Containing S-Amlodipine Besylate: A Bioequivalence and Stability Study” (Pharmaceutics, 2025).

Experiments:
[1] = Compatibility study of each API alone or 1:1 (w/w) with excipients under stressed conditions, impurities by HPLC; format: physicochemical; conditions: 60 ± 2 °C/80 ± 5% RH
Description: We evaluated the compatibility between APIs and excipients, for which each API in […]® tablets was individually mixed in a 1:1 (w/w) ratio with excipients used in the formulation, as well as with commonly used tablet excipients selected based on their functional roles (e.g., diluents, binders, disintegrants, lubricants, etc.). […] The compatibility study was conducted in a temperature and humidity chamber (Sunil Eyela Co., Seongnam, Korea). Samples were withdrawn at predetermined intervals and analyzed for impurities (%). A HPLC system (Agilent Technologies, Inc. CA, USA) was used for the quantitative analysis of impurities. The column used was Symmetry C8 (100 mm × 4.6 mm, 3.5 μm, Waters Corp., Milford, CT, USA). Mobile phase A consisted of a mixture of phosphate buffer (pH 2.8) and acetonitrile at a ratio of […] prepared in a 1000 mL volumetric flask. The buffer was prepared by adjusting a 10% phosphoric acid solution to pH 2.8, filtered through a 0.45 μm membrane filter (Millipore; Billerica, MA, USA), and degassed before use. Mobile phase B consisted of a phosphate buffer (pH 2.8) and acetonitrile at a ratio of 600:1400 (v/v), which was similarly prepared and degassed before use. The mobile phases were delivered at a flow rate of 1.0 mL/min, the column temperature was maintained at 35 °C, and detection was performed at a wavelength of 250 nm.

[2] = parameters: method as in PMID 21966165; conditions: low solubility and high permeability; cited from earlier work
[3] = S-amlodipine besylate compatibility, 1w
[4] = S-amlodipine besylate compatibility, 2w
[5] = S-amlodipine besylate compatibility, 4w
[6] = hydrochlorothiazide compatibility, 1w
[7] = hydrochlorothiazide compatibility, 2w
[8] = hydrochlorothiazide compatibility, 4w
[9] = hydrochlorothiazide compatibility, Initial
[10] = olmesartan medoxomil compatibility, 1w
[11] = olmesartan medoxomil compatibility, 2w
[12] = olmesartan medoxomil compatibility, 4w
[13] = olmesartan medoxomil compatibility, Initial

## CCOC(=O)C1=C(COCCN)NC(C)=C(C(=O)OC)[C@@H]1c1ccccc1Cl.O.O.O=S(=O)(O)c1ccccc1 [S-amlodipine besylate, S-amlodipine besylate dihydrate]
[1]; [3]
  Amlodipine Related Compound A: <LOQ
  Total Impurity: <LOQ
  Unknown Impurity: <LOQ
[1]; [4]
  Amlodipine Related Compound A: <LOQ
  Total Impurity: <LOQ
  Unknown Impurity: <LOQ
[1]; [5]
  Amlodipine Related Compound A: 0.06%
  Total Impurity: 0.30%
  Unknown Impurity: 0.16%

## NS(=O)(=O)c1cc2c(cc1Cl)NCNS2(=O)=O [Hydrochlorothiazide]
[1]; [6]
  Benzothiadiazine Related Compound A: <LOQ
  Total Impurity: 0.08%
  Unknown Impurity: 0.08%
[1]; [7]
  Benzothiadiazine Related Compound A: <LOQ
  Total Impurity: 0.08%
  Unknown Impurity: 0.08%
[1]; [8]
  Benzothiadiazine Related Compound A: <LOQ
  Total Impurity: 0.08%
  Unknown Impurity: 0.08%
[1]; [9]
  Benzothiadiazine Related Compound A: <LOQ
  Total Impurity: 0.10%
  Unknown Impurity: 0.10%

## CCCc1nc(C(C)(C)O)c(C(=O)OCc2oc(=O)oc2C)n1Cc1ccc(-c2ccccc2-c2nnn[nH]2)cc1 [Olmesartan medoxomil]
[2]
  Biopharmaceutics Classification System (BCS) class: Class II
[1]; [10]
  RNH-8276: <LOQ
  Total Impurity: <LOQ
  Unknown Impurity: <LOQ
[1]; [11]
  RNH-8276: <LOQ
  Total Impurity: <LOQ
  Unknown Impurity: <LOQ
[1]; [12]
  RNH-8276: <LOQ
  Total Impurity: 0.05%
  Unknown Impurity: 0.05%
[1]; [13]
  Total Impurity: <LOQ
  Unknown Impurity: <LOQ
